For assay [1], the system named is rabbit corneal endothelium. Description: Central corneal thickness by ultrasonic pachymeter after trans-corneal freezing damage. The assay is classed as in vivo. Here is the method: (§1) 30 eyeballs of 15 healthy white New Zealand rabbits weighing about 2.0 kg to about 3.0 kg without external opacification were anesthetized by intramuscular injection with 12.5 mg/kg of tiletamine/zolazepam (Zoletil®, VirbacLab, France) and 12.5 mg/kg of zylazine (Rompun®, BayerKorea, Korea). Afterwards, 0.5% povidone-iodine was used for disinfection of the whole range of experimental sight. Referring to FIG. 1, an 8 mm-diameter stainless steel rod as a probe was immersed in liquid nitrogen for 3 minutes, removed therefrom once the temperature of the liquid nitrogen reached −196° C., and brought into contact to the central cornea for 15 seconds. Then, each of the eyeballs was washed with 10 cc of 0.9% saline solution. In order to prevent the occurrence of corneal infection, the rabbit corneas were given instillation of Levofloxacin (Cravit®, Santen, Japan) three times a day for 3 days after the damage was induced.
(§2) 3 groups consisting of 10 eyeballs given instillation of angiogenin (200 μg/mL), 7 eyeballs given Y-27632 (10 mM) inhibitor of Rho-associated coiled-coil kinase (ROCK) pathway, and 7 eyeballs as a control group given phosphate-buffered solution (PBS) were each subjected to 50 μl of instillation at a time, and more particularly, 6 times a day for the first 2 days, and then, 4 times a day for the following 2 days, starting immediately after inducing freeze-damages to the trans-corneal endothelium. That is, the instillation was performed 20 times in total for 4 days.
After inducing freeze-damages to trans-corneal of all the eyeballs from the group given instillation of angiogenin, the group given instillation of Y-27632, and the control group, the central corneal thickness was measured 3 times by using an ultrasonic corneal pachymeter (POCKET-II, Quantel medical, Clemont-Ferrand, France) at every 48 hours (2nd day), 72 hours (3rd day), 144 hours (6th day), and 192 hours (8th day), thereby calculating a mean value thereof. Here, the maximum measurable value of the ultrasonic corneal pachymeter was referred to 1,000 μm so the maximum corneal thickness was also considered as 1,000 μm.

The test system of assay [2] is rabbit corneal endothelial cells. As to the kind of experiment: In vitro scratch wound healing of cultured rabbit corneal endothelial cells. The note with it: for Wound healing index: angiogenin 2 μg/ml, mean ± SE. It counts as cell-based. Here is the method: A corneal endothelial tissue segment obtained from remaining corneal portions other than the central 8 mm corneal portion in cadaveric cornea donated for transplantation and a corneal endothelial tissue segment of a normal rabbit were cultured. Then, each of the corneal tissues was divided into 6 pieces and washed by shaking 6 times in a petri dish to which 7 ml of 5% penicillin/streptomycin (P/S) was added. Then, the washed tissues were each transferred to a 6-well dish such that the endothelial layer was facing down, and the tissues were semi-dried until the dishes were slightly drained. Next, the corneal endothelial cells of the rabbit cornea were cultured in a culture medium (EGM™-2BulletKit™, Lonza, Allendale, USA) containing human epidermal growth factor (hEGF), hydrocortisone, 5% fetal bovine serum (FBS), human […] (hFGF), insulin-like growth factor (IGF), ascorbic acid, gentamicin, and amphotericin-B (EGM™-2BulletKit™, Lonza, Allendale, USA), and the corneal endothelial cells of the human cornea were cultured in a culture medium (Opti-MEM®, Gibco®, New York, USA) supplemented with 8% FBS, calcium (CaCl2), chondroitinsulfate, ascorbic acid, multi-vitamin solution, gentamicin, anti-Pseudomonas aeruginosa antibiotic, pituitary extract, epidermal growth factor (EGF), and nerve growth factor (NGF), for about 5 to 7 days.
Experiments have been carried to identify angiogenin effects on migration and proliferation of the corneal endothelial cells. When the cultured rabbit corneal endothelial cells had about 80-90% confluency in three 6-well dishes, the central part of each well was scratched by a tip of a 200 μl pipette to make wounds. Then, each of the three 6-well dishes was replaced by a culture medium containing 1) 5% FBS (in the control group), 2) Y-27632 (10 μM), and 3) angiogenin (2 μg/ml). At every 0 hour, 12 hours, 24 hours, and 48 hours, digital images of the remaining wounded areas were obtained at 40× magnification of the optical microscope, and measured in pixels by using the Image J software. In addition, each of the three 6-well dishes containing the cultured corneal endothelial cells in the human was scratched in the same manner as described above to make wounds, and then, replaced by a culture medium containing 1) 5% FBS (in the control group), 2) Y-27632 (10 μM), and 3) angiogenin (5 μg/ml). At every 6 hours and 24 hours, the wounded areas were measured by using the Image J software. The ratio of initial wounded area versus recovered area was defined as wound healing index, which is calculated as shown below. Here, the initial wounded area was corrected to be equal before the calculation. Wound healing index(%)=(Initial wounded area−Remaining wounded area)/Initial wounded area

In assay [3] the test system is rabbit corneal endothelium. Description: Corneal transparency grade by slit-lamp after trans-corneal freezing damage. It counts as in vivo. To be noted: mean ± SE. Here is the method: as §1, §2
Then, the groups were subjected to the evaluation of corneal opacity and corneal edema by using a digital camera (VLUUNV100HD, Samsung, Suwon, Korea) to obtain images taken in a diagonal direction.
Experiments have been carried out to identify effects of angiogenin-induced PI3k-Akt signaling pathway in terms of recovering the corneal transparency after inducing damages to the corneal endothelium. After inducing freeze-damages to the corneal endothelium, 4 eyeballs out of 30 rabbit eyeballs in total were subjected to 50 μl of each of 200 μg/mL of angiogenin and 200 μM of PI3k-Akt pathway inhibitor, LY294002 instillation at a time every 3 minutes, and more particularly, 6 times a day for the first 2 days, and then, 4 times a day for the following one day. That is, the instillation was performed 16 times in total for 3 days.

Setting [4] is: 48 h after freeze damage, maximum measurable value 1,000 μm.
[5] abbreviates: 72 h after freeze damage, maximum measurable value 1,000 μm.
[6] abbreviates: 144 h after freeze damage, angiogenin 200 μg/mL, Y-27632 10 mM instillation, mean ± SE.
Setting [7] is: 192 h after freeze damage, angiogenin 200 μg/mL, Y-27632 10 mM instillation, mean ± SE.
Setting [8] is: 48 h after freeze damage, instillation 50 μl (angiogenin 200 μg/mL, Y-27632 10 mM), grade 0 transparent to +4.0 turbid (Table 1).
Setting [9] is: 72 h after freeze damage, instillation 50 μl (angiogenin 200 μg/mL, Y-27632 10 mM, LY294002 200 μM), grade 0 to +4.0 (Table 1).
[10] abbreviates: 144 h after freeze damage, instillation 50 μl (angiogenin 200 μg/mL, Y-27632 10 mM), grade 0 to +4.0 (Table 1).
The mark [11] stands for this setting: 192 h after freeze damage, instillation 50 μl (angiogenin 200 μg/mL, Y-27632 10 mM), grade 0 to +4.0 (Table 1).

Take `C[C@@H](N)[C@H]1CC[C@H](C(=O)Nc2ccncc2)CC1` [Y-27632, reference compound]: the Central corneal thickness in assay [1] (0 h (baseline), mean ± SE) is reported as 361.7 ± 3.4 μm; in assay [1] (setting [4]), >1,000 μm; in assay [1] (setting [5]), >1,000 μm; in assay [1] (setting [6]), 571.6 ± 43.0 μm; in assay [1] (setting [7]), 432.5 ± 332.2 μm. Further, the “Wound healing index compared with the control group” value in assay [2] (Y-27632 10 μM, 12, 24, 48 hours) was “did not show significant difference”. The “Grade of corneal transparency (by using slit-lamp biomicroscope)” value in assay [3] (setting [8]) is recorded as 4.00 ± 0; in assay [3] (setting [9]) it was 3.00 ± 0.41; in assay [3] (setting [10]), 1.38 ± 0.38; in assay [3] (setting [11]) it was 1.38 ± 0.38.
“Angiogenin: 14.4-kDa single chain protein of 123 amino acids, secreted protein capable of inducing angiogenesis”: the Central corneal thickness in assay [1] (0 h (baseline), mean ± SE) is 350.4 ± 6.2 μm; in assay [1] (setting [4]), >1,000 μm; in assay [1] (setting [5]), >1,000 μm; in assay [1] (setting [6]), 503.0 ± 21.1 μm; in assay [1] (144 h after freeze damage, angiogenin 200 μg/mL, Y-27632 10 mM instillation, mean ± SE, listed as angiogenin), “about 503.0±21.07 μm”; in assay [1] (setting [7]), 390.3 ± 10.5 μm. Besides, the Central corneal thickness result in assay [1] (192 h after freeze damage, angiogenin 200 μg/mL, Y-27632 10 mM instillation, mean ± SE, listed as angiogenin) was “about 390.3±10.55 μm”. The Wound healing index is reported as 28.7±2.9% in assay [2] (12 hours), 66.7±4.3% in assay [2] (24 hours) and 78.7±2.9% in assay [2] (48 hours). Besides, the “Grade of corneal transparency (by using slit-lamp biomicroscope)” value in assay [3] (setting [8]) is 4.00 ± 0; in assay [3] (setting [9]) it was 2.65 ± 0.37; in assay [3] (setting [10]), 1.29 ± 0.26; in assay [3] (setting [11]), 1.29 ± 0.26.

The values are drawn from US9050301B2, “Pharmaceutical composition for treatment of corneal endothelial wounds containing angiogenin” (Chung-Ang University Industry-Academy Cooperation Foundation, priority 2013, dated 2015).
